{
  "source": "patent EP0138995B1",
  "about": "“REGULATION OF ENZYMES WHICH UTILIZE TETRAHYDROBIOPTERIN OR TETRAHYDROFOLATE COFACTORS WITH 6, 6-DISUBSTITUTED-TETRAHYDROPTERIDINES” (South Alabama Medical Science Foundation, priority 1983, dated 1984)",
  "key": {"[1]": {"tested_on": "phenylalanine hydroxylase", "conditions": "cited from earlier work"}, "[2]": {"tested_on": "striatal tyrosine hydroxylase", "conditions": "cited from earlier work"}, "[3]": {"test": "Near-saturation concentration at neutral pH", "assay_type": "physicochemical", "conditions": "organic solvent or mixture, in 0.5 M 2-mercaptoethanol, room temperature, read-out: concentration of an almost saturated solution", "experimental": "2-Amino-4-hydroxy-6-methyl-6-phenyl-5,6,7,8-tetrahydropteridine ([…]): The above dry quinoid-dihydropteridine was reduced in near quantitative yield by addition of 0.5 M 2-mercaptoethanol at room temperature, such that the final concentration of product was approximately 10 mM (an almost saturated solution at neutral pH). To obtain the pure dihydrochloride salt, this solution was rotary evaporated to an oil which was dissolved in 2M HCl in methanol and 4 volumes of ethyl ether added, and the precipitate collected by centrifugation and washed twice by resuspension in fresh ethyl ether, followed by centrifugation."}, "[4]": {"molecular_target": "T1, Sheep Liver Dihydropteridine Reductase (Ovis aries, UniProt A0ACI6QPJ5)", "T1 sequence (A0ACI6QPJ5 46-254)": "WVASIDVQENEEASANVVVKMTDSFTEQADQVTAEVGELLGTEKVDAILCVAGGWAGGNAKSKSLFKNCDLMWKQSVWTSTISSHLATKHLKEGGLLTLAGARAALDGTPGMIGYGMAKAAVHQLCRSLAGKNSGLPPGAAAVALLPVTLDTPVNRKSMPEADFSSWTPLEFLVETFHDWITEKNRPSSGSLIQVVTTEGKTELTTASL", "test": "Quinoid dihydropterin as substrate for dihydropteridine reductase (sheep liver)", "assay_type": "biochemical", "experimental": "The quinoid was generated from 6,6-Me₂PH₄, as outlined previously. […] Peroxidase (6 units/ml final volume) was temperature equilibrated in 0.1 M Tris·HCl, pH 7.4, at 27° for 5 minutes. H₂O₂ (1.2 mM final concentration) was then added, followed by 6,6-Me₂PH₄. Conversion to q-6,6-Me₂PH₂, monitored at 340 nm, was complete within a few seconds. • (iii) Generation by phenylalanine hydroxylase: […] At 5 minutes, 6,6-Me₂PH₄ was introduced and monitored at 340 nm. Conversion of 6,6-Me₂PH₄ to quinoid dihydropterin was complete in 1-7 minutes, depending on the concentration. […] Reaction was then initiated with dihydropteridine reductase (0.01 units/ml). Rates were calculated from the enzyme dependent decrease in O.D. at 340 nm, using an extinction coefficient of 9.8 for the chemically synthesized substrate and 6.2 for the peroxidase- and phenylalanine-hydroxylase-containing reactions in which the pterin is maintained in the quinoid form. […] This Km was obtained regardless of the method of generation of the quinoid dihydropterin. The Vmax's were also the same for the dihydropteridine reductase catalyzed reduction of quinoid generated by any of the three methods (Table VI). Thus, the quinoid products of each procedure appear to behave equally."}, "[5]": {"test": "Stability (decay) of quinoid-6,6-Me2PH2 monitored spectrophotometrically", "assay_type": "physicochemical", "experimental": "Stability. The decay of q-6,6-Me₂PH₂ in a variety of environments was monitored spectrophotometrically. […] In water, a plateau of highest stability is observed near neutral pH. At pH 6.8, solutions kept on ice have a half-life greater than 100 hours. […] Loss of quinoid is somewhat increased in acid and greatly accelerated in base. […] This process is not affected by the presence of oxygen."}, "[6]": {"test": "Non-enzymatic reduction of quinoid-6,6-Me2PH2 by physiological reducing agents", "assay_type": "physicochemical", "conditions": "0.1 M Tris·HCl, pH 7.4 at 37°", "experimental": "Non-Enzymatic Reduction of Quinoid-6,6-Me₂PH₂ under Physiological Conditions. Aromatic amino acid hydroxylase cofactor analogs which are relatively stable in the quinoid-dihydro form may have therapeutic potential for treatment of dihydropteridine reductase deficiency. Thus, it was of interest to determine the rate at which quinoid is reduced to the tetrahydropterin by various physiological reducing agents. Rates were measured in 0.1 M Tris·HCl, pH 7.4 at 37°, from the decrease in absorbance at 340 nm. A reaction first order in each component was observed. With NADH, NADPH and absorbic acid, the rate of reduction (k=660 M⁻¹min⁻¹) was the same. The rate with cysteine was about four times slower (k=160 M⁻¹min⁻¹)."}, "[7]": {"molecular_target": "T2, Beef Liver Dihydropteridine Reductase (Bos taurus, UniProt Q3T0Z7)", "T2 construct": "from tissue; host or cells: beef liver", "T2 sequence (Q3T0Z7 1-242)": "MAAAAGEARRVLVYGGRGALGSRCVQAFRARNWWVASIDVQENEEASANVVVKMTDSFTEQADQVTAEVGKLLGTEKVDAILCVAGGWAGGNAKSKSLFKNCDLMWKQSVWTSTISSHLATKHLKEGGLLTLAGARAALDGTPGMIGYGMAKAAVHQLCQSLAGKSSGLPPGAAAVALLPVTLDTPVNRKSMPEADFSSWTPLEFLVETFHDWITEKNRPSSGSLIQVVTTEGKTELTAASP", "test": "Quinoid dihydropterin as substrate for dihydropteridine reductase (beef liver)", "assay_type": "biochemical", "experimental": "The quinoid was generated from 6,6-Me₂PH₄, as outlined previously. […] Peroxidase (6 units/ml final volume) was temperature equilibrated in 0.1 M Tris·HCl, pH 7.4, at 27° for 5 minutes. H₂O₂ (1.2 mM final concentration) was then added, followed by 6,6-Me₂PH₄. […] At 5 minutes, 6,6-Me₂PH₄ was introduced and monitored at 340 nm. […] Reaction was then initiated with dihydropteridine reductase (0.01 units/ml). Rates were calculated from the enzyme dependent decrease in O.D. at 340 nm, using an extinction coefficient of 9.8 for the chemically synthesized substrate and 6.2 for the peroxidase- and phenylalanine-hydroxylase-containing reactions in which the pterin is maintained in the quinoid form."}, "[8]": {"test": "Spectrophotometric pKa determination of quinoid dihydropterin", "assay_type": "physicochemical", "conditions": "sodium succinate buffer; transition between neutral and monocationic species; sodium succinate buffers, I=0.01, 25°C", "experimental": "pKa. The pKa for the transition between the neutral and monocationic species of q-6,6-Me₂PH₂ was determined spectrophotometrically. A concentrated stock solution of quinoid, free of elemental bromine, in n-propanol was diluted to 0.1 mM into a series of sodium succinate buffers at constant ionic strength (I=0.01). Spectra, background corrected for each buffer individually, were acquired on a Perkin-Elmer 552 spectrophotometer thermostated to 25°C."}, "[9]": {"molecular_target": "T3, phenylalanine hydroxylase (Rattus norvegicus, UniProt P04176)", "T3 construct": "from tissue", "T3 sequence (P04176 1-453)": "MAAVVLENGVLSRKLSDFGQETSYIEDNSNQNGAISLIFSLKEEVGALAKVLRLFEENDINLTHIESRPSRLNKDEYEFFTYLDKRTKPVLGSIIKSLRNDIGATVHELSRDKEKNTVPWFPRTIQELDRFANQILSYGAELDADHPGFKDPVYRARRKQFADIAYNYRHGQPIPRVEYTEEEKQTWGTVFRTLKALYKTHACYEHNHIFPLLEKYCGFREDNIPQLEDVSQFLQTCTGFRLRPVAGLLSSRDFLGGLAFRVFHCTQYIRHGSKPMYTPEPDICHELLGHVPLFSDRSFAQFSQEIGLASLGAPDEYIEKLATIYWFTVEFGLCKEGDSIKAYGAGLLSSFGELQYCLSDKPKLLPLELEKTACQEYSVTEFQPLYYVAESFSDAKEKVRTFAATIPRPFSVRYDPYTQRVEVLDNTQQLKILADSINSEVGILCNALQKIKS", "test": "Inhibition of phenylalanine hydroxylase by dihydropterins", "assay_type": "biochemical", "conditions": "concentrations up to 0.4 mM; 6,6-Me2PH4 as cofactor 0.05-0.3 mM", "experimental": "Measurements were made under standard assay conditions with cofactor concentration varied between 0.05 and 0.3 mM. Stock solutions of 6,6-Me₂PH₂ were in 0.1 M assay buffer.\nStandard assay conditions, with 6-MePH₄ as cofactor over a range of 0.05 mM to 0.3 mM, were employed."}, "[10]": {"conditions": "substrate produced by Bromine oxidation"}, "[11]": {"conditions": "substrate produced by Phe hydroxylase + phe"}},
  "note": "Read-outs that look alike come from different tables or passages of the source.",
  "data": [
    {"smiles": "Nc1nc2c(c(=O)[nH]1)NC(c1ccccc1)CN2", "note": "(centres unmarked) [Compound 6-Phenyl-PH4, 6-phenyltetrahydropterin]", "values": [
      {"measurement": "decrease of Vmax compared to tetrahydrobiopterin", "setting": "[1]", "result": 10, "unit": "fold"},
      {"measurement": "increase of Vmax compared to tetrahydrobiopterin", "setting": "[2]", "result": 10, "unit": "fold"}
    ]},
    {"smiles": "CC1(c2ccccc2)CNc2nc(N)nc(O)c2N1", "note": "(centres unmarked) [6-Phenyl-6-Methyl-PH4, 2-Amino-4-hydroxy-6-methyl-6-phenyl-5,6,7,8-tetrahydropteridine]", "values": [
      {"measurement": "solubility", "setting": "[3]", "result": "~10", "unit": "mM"}
    ]},
    {"smiles": "CC1(C)CNC2=NC(N)=NC(=O)C2=N1", "note": "[Quinoid-6,6-Me2PH2, 2-Amino-6,6-dimethyl-4-hydroxyquinoid-dihydropteridine]", "values": [
      {"measurement": "Relative Vmax Sheep", "setting": "[4]; [10]", "result": 1},
      {"measurement": "Relative Vmax Sheep", "setting": "[4]; [11]", "result": 1},
      {"measurement": "stability relative to the quinoid forms of 6-methyldihydropterin or dihydrobiopterin", "setting": "[5]", "result": "one to two orders of magnitude more stable"},
      {"measurement": "half-life", "setting": "[5]; 0.1 m tris-hcl, air, pH 7.4, pH 7.4 (0.1 M Tris·HCl), 27°C, air, read-out: t 1/2 (converted)", "result": 4, "unit": "h"},
      {"measurement": "half-life", "setting": "[5]; 0.1 m tris-hcl, air, pH 7.4, pH 7.4 (0.1 M Tris·HCl), 37°C, air, read-out: t 1/2 (converted)", "result": 1.25, "unit": "h"},
      {"measurement": "half-life", "setting": "[5]; 0.1 m tris-hcl, argon, pH 7.4, pH 7.4 (0.1 M Tris·HCl), 37°C, argon, read-out: t 1/2 (converted)", "result": 1.25, "unit": "h"},
      {"measurement": "half-life", "setting": "[5]; 1n hcl, air, pH 0, pH 0 (1N HCl), 37°C, air, read-out: t 1/2 (converted)", "result": 0.75, "unit": "h"},
      {"measurement": "half-life", "setting": "[5]; 1n hcl, argon, pH 0, pH 0 (1N HCl), 37°C, argon, read-out: t 1/2 (converted)", "result": 0.75, "unit": "h"},
      {"measurement": "half-life", "setting": "[5]; aerated (CH3)2SO at -80°C", "result": "several weeks"},
      {"measurement": "half-life", "setting": "[5]; dmso, aerated (CH3)2SO at ambient temperature, read-out: half-life (converted)", "result": "~48", "unit": "h"},
      {"measurement": "rearrangement to a 7,8-dihydropterin", "setting": "[5]; in contrast to quinoid dihydropterin monosubstituted at C6", "result": "does not appear to rearrange to a 7,8-dihydropterin"},
      {"measurement": "t 1/2", "setting": "[5]; pH 6.8 (Tris-MES 0.1M), 0°C (on ice), air", "result": 104, "unit": "h"},
      {"measurement": "storage stability of the dry powder", "setting": "[5]; stored desiccated for several months at -80°C", "result": "no detectable change"},
      {"measurement": "half-life", "setting": "[5]; tris-mes 0.1 m, air, pH 6.8, pH 6.8 (Tris-MES 0.1M), 0°C (on ice), air, read-out: t 1/2 (converted)", "result": "> 100", "unit": "h"},
      {"measurement": "rate of reduction (k)", "setting": "[6]; with NADH", "result": 11, "unit": "M⁻¹ s⁻¹"},
      {"measurement": "rate of reduction (k)", "setting": "[6]; with NADPH", "result": 11, "unit": "M⁻¹ s⁻¹"},
      {"measurement": "rate of reduction (k)", "setting": "[6]; with absorbic acid", "result": 11, "unit": "M⁻¹ s⁻¹"},
      {"measurement": "rate of reduction (k)", "setting": "[6]; with cysteine", "result": 2.67, "unit": "M⁻¹ s⁻¹"},
      {"measurement": "Relative Vmax Beef", "setting": "[7]; [10]", "result": 1},
      {"measurement": "Relative Vmax Beef", "setting": "[7]; substrate produced by Peroxidase + H2O2", "result": 1},
      {"measurement": "Relative Vmax Beef", "setting": "[7]; [11]", "result": 1},
      {"measurement": "pKa", "setting": "[8]", "result": "5.15 ± 0.05"},
      {"measurement": "inhibition of purified phenylalanine hydroxylase", "setting": "[9]", "result": "No inhibition"}
    ]}
  ]
}
